# Experimental data reported in patent publication US20260345649A1, “PHARMACEUTICAL COMPOSITION FOR DESTRUCTION OF TUMOR BLOOD VESSELS” (SAMSUNG MEDICAL FOUNDATION, priority 2022, published 2026).
# Experiments:
# [1] = tested on: HUVECs; assay: MTS cell proliferation assay, 5-FU cytotoxicity in HUVECs at different pH; type: cell-based, human; conditions: FIG. 5
# Protocol: To evaluate the cytotoxic effect of 5-fluorouracil (5-FU) in human umbilical vein endothelial cells (HUVECs) under different pH conditions, an MTS cell proliferation assay was performed.
# Subsequently, the cells were cultured for an additional 24 hours in Dulbecco's Modified Eagle's Medium (DMEM) containing 5-FU at different pH conditions (pH 6.4, 7.4, 8.4, and 9.0). Following the incubation, the cells were washed twice with phosphate-buffered saline (PBS), after which 100 μL of fresh DMEM growth medium was added, followed by an additional 48-hour incubation. […] After an additional 2-hour incubation, the absorbance was measured at 490 nm using a microplate reader (Model 680, BIO-RAD; Spark, TECAN, CA, USA).
# [2] = tested on: VEGF; assay: VEGF immunohistochemical staining of gastric tumor tissue after local injection of 5-FU in nude mice; type: in vivo
# Protocol: To observe changes in vascular tissue within gastric tumor masses after local injection of 5-FU, immunohistochemical staining for CD31 and VEGF was performed.
# For the control group, gastric tumor tissue was implanted in the dorsal region of nude mice, and when the tumor reached a size of 1 cm×1 cm, it was excised and used. For the 5-FU injection group, 5 mg of 5-FU was injected at the base of the tumor when the implanted tumor reached a size of 1 cm×1 cm. […] The immunohistochemical staining method was as follows.
# To reduce endogenous peroxidase activity present in blood cells within the tissue, the slides were treated at room temperature with 3% H2O2 in methanol for 15 minutes. […] The slides were washed twice with TBST (Tris-buffered saline with 0.1% Tween® 20 Detergent) for 3 minutes each, followed by incubation at room temperature for 15 minutes with Detection Kit Reagent 1 (HRP Polymer-anti-mouse/rabbit IgG). […] For counterstaining, Harris hematoxylin was applied.
# For result analysis, the proportion of the area stained for CD31-positive blood vessels and VEGF-positive cancer cells relative to the total tissue area was calculated, and a comparison was made between the control group and the 5-FU locally injected group.
# [3] = tested on: human gastric cancer cells; assay: Human gastric cancer cell xenograft in nude mice, alkaline 5-FU injected adjacent to tumor; type: in vivo, nude mice (Crj: BALB/c-nu/nu), human tumor cells; conditions: 5 mg 5-FU pH 8.4, three times at one-week intervals, 4 weeks, P<0.05, FIG. 8
# Protocol: The animals used in the experiment were six male nude mice (Crj: BALB/c-nu/nu mice, male) aged five weeks and weighing approximately 30 grams, purchased from Orient. The mice were subjected to a one-week acclimation period in the laboratory before use. Each nude mouse was subcutaneously xenografted with 5×10^6 human gastric cancer cells suspended in 100 μL of PBS on the dorsal subcutaneous layer. The tumor size was periodically measured, and when it reached a diameter of 1 cm, the drug administration experiment was conducted.
# The experimental animals were divided into two groups. One group served as the control group, receiving only physiological saline, while the other group was administered 5 mg of 5-FU at pH 8.4. The drug was injected 0.2 cc adjacent to the tumor three times at one-week intervals. After one month, the major and minor axes of the tumors growing on the dorsal epidermis were measured.
smiles,measurement,setting,value
"O=c1[nH]cc(F)c(=O)[nH]1 [5-FU, 5-fluorouracil]",cytotoxicity under alkaline conditions compared to neutral or acidic 5-FU,[1],significantly greater toxicity
same,cytotoxic effect according to pH,"[1]; pH 6.4, 7.4, 8.4, and 9.0, 24 hours",increased as the alkalinity of the drug became stronger
same,Immuno-positive area (%),"[2]; VEGF, proportion of total tissue area, 5 mg 5-FU, one week after injection, control group 0.38",0.10%
same,VEGF secretion levels,[2]; compared to control group,decreased
same,VEGF stained area,"[2]; compared to control group, FIG. 7",appeared smaller
same,tumor size compared to before injection,[3],significantly reduced
